Assay results taken from ChEMBL document CHEMBL1201862, “PubChem BioAssay data set” (2004).
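Dose response: 5 concentrations. Exposure: 48 h. Format: 96-well plates. Endpoint: linear interpolation; highest concentration if not reached. At the GI50, growth is halved.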 The source made the active and inactive calls. Rule as the data show it: active = GI50 up to about 1.1 µM and inactive = higher.

Assays:
Experiment in all cases: NCI anticancer screen, dose series, 48 h
A549 = test system: A549
EKVX = test system: EKVX
HCT-116 = test system: HCT-116
KM12 = test system: KM12
Malme-3M = test system: Malme-3M
NCI-H23 = test system: NCI-H23
NCI-H460 = test system: NCI-H460
SF-295 = test system: SF-295
SF-539 = test system: SF-539
SK-MEL-2 = test system: SK-MEL-2
SN12C = test system: SN12C
SNB-19 = test system: SNB-19
UACC-257 = test system: UACC-257
UO-31 = test system: UO-31
HT-29 = test system: HT-29

Structure (SMILES)	GI50 (A549)	GI50 (EKVX)	GI50 (HCT-116)	GI50 (KM12)	GI50 (Malme-3M)	GI50 (NCI-H23)	GI50 (NCI-H460)	GI50 (SF-295)	GI50 (SF-539)	GI50 (SK-MEL-2)	GI50 (SN12C)	GI50 (SNB-19)	GI50 (UACC-257)	GI50 (UO-31)	GI50 (HT-29)
O=C(O)C1(C(=O)O)CC1	> 100 µM (inactive)	> 100 µM (inactive)	> 100 µM (inactive)	> 100 µM (inactive)	> 100 µM (inactive)	> 100 µM (inactive)	> 100 µM (inactive)	> 100 µM (inactive)	> 100 µM (inactive)	> 100 µM (inactive)	> 100 µM (inactive)	> 100 µM (inactive)	> 100 µM (inactive)	> 100 µM (inactive)	–
CCc1c(C#N)c(=O)[nH]c(=O)n1CCN1CCN(C(=O)NCCCCCCNC(=O)N2CCN(CCn3c(CC)c(C#N)c(=O)[nH]c3=O)CC2)CC1	> 100 µM (inactive)	> 100 µM (inactive)	> 100 µM (inactive)	–	–	–	> 100 µM (inactive)	> 100 µM (inactive)	> 100 µM (inactive)	–	> 100 µM (inactive)	> 100 µM (inactive)	> 100 µM (inactive)	–	> 100 µM (inactive)
O=C(c1nc2ccc(Cl)cc2nc1O)C(O)c1ccc2c(c1)OCO2 (stereo not given)	> 100 µM (inactive)	> 100 µM (inactive)	–	63.7 µM (inactive)	> 100 µM (inactive)	> 100 µM (inactive)	> 100 µM (inactive)	> 100 µM (inactive)	–	> 100 µM (inactive)	–	–	> 100 µM (inactive)	> 100 µM (inactive)	> 100 µM (inactive)
COc1ccccc1-c1cc(=O)c2cc(C)c(C)c(C(=O)O)c2o1	> 100 µM (inactive)	> 100 µM (inactive)	> 100 µM (inactive)	> 100 µM (inactive)	> 100 µM (inactive)	> 100 µM (inactive)	> 100 µM (inactive)	> 100 µM (inactive)	> 100 µM (inactive)	> 100 µM (inactive)	> 100 µM (inactive)	> 100 µM (inactive)	> 100 µM (inactive)	> 100 µM (inactive)	> 100 µM (inactive)
O=C1C(=O)N(c2nccs2)C(=O)C(=O)C1c1nc2ccccc2s1	> 100 µM (inactive)	> 100 µM (inactive)	> 100 µM (inactive)	> 100 µM (inactive)	> 100 µM (inactive)	> 100 µM (inactive)	> 100 µM (inactive)	> 100 µM (inactive)	> 100 µM (inactive)	> 100 µM (inactive)	> 100 µM (inactive)	> 100 µM (inactive)	> 100 µM (inactive)	> 100 µM (inactive)	> 100 µM (inactive)
Cc1cc(Cl)ccc1NC(=O)C(=O)C(C(=O)c1ccc2ccccc2c1)C1OC(=O)c2ccccc21 (stereo not given)	21.3 µM (inactive)	29.2 µM (inactive)	9.4 µM (inactive)	17 µM (inactive)	10 µM (inactive)	6.73 µM (inactive)	6.93 µM (inactive)	–	4.48 µM (inactive)	12.8 µM (inactive)	15.7 µM (inactive)	3.87 µM (inactive)	16.1 µM (inactive)	12.9 µM (inactive)	28.4 µM (inactive)
CCC12C[N+]3([O-])CCc4c([nH]c5ccccc45)C(C(=O)OC)(c4cc5c(cc4OC)N(C)C4C(O)(C(=O)OC)C(OC(C)=O)C6(CC)C=CCN7CCC54C76)CC(C3)C1O2 (stereo not given)	0.826 µM (active)	0.467 µM (active)	0.41 µM (active)	0.337 µM (active)	1.61 µM (inactive)	0.465 µM (active)	0.424 µM (active)	0.291 µM (active)	0.28 µM (active)	0.234 µM (active)	2.33 µM (inactive)	0.597 µM (active)	7.01 µM (inactive)	3.17 µM (inactive)	0.342 µM (active)
COC1=CC(=O)C(Br)=CC1=O	> 100 µM (inactive)	25.1 µM (inactive)	–	–	21 µM (inactive)	18.9 µM (inactive)	> 100 µM (inactive)	–	–	20.5 µM (inactive)	18.5 µM (inactive)	17.8 µM (inactive)	17.3 µM (inactive)	17.5 µM (inactive)	19.2 µM (inactive)
